These results are taken from patent publication US8063234B2, “Substituted 7-sulfanylmethyl-, 7-sulfinylmethyl- and 7-sulfonylmethylindoles and the use thereof” (Bayer Schering Pharma Aktiengesellschaft, priority 2008, dated 2011).

For this data set, the target named is T1, CYP3A4 (Homo sapiens, UniProt P08684).
T1 construct: human liver microsomes (pool from various individuals); from tissue; host or cells: human liver microsomes (pool from various individuals)
Description: Assay to assess irreversible CYP3A4 inhibition (mechanism-based inhibition) in human liver microsomes. Particulars: 2-20 μM, preincubation 0-50 min, 6β-hydroxytestosterone formation. In kind it is in vitro ADME. From the text:
8. Assay to Assess Irreversible CYP3A4 Inhibition
Cytochrom P450 enzyme inhibition, especially irreversible enzyme inhibition, also referred to as mechanism-based inhibition (MBI), is an unwanted metabolic property of a substance which may, on concurrent administration of other medicaments, lead to considerable drug interactions. Criteria for the presence of an irreversible inhibition are a time-, concentration- and cofactor- (nicotinamide adenine dinucleotide phosphate, NADPH) dependent inhibition. To this end, the compounds of the invention are incubated in vitro with human liver microsomes, the influence on the CYP3A4 activity and the metabolic degradation of the novel active ingredient is determined, and the prototypical parameters kinact, Ki and the partition ratio r are ascertained therefrom.
The compounds of the invention are incubated with concentrations of 2-20 μM. To this end, stock solutions of the active ingredients with a concentration of 0.2-2 mM are prepared in acetonitrile and then pipetted with a 1:100 dilution into the incubation mixture. The liver microsomes are incubated in 50 mM potassium phosphate buffer (pH 7.4) with and without NADPH-generating system consisting of 1 mM NADP^+, 5 mM glucose 6-phosphate and 1 unit of glucose 6-phosphate dehydrogenase, at 37° C. After defined preincubation times of 0-50 min, aliquots are removed from these mixtures, diluted 1:25 in a new incubation, and incubated in the presence of testosterone and new NADPH-generating system again for 20 min. These incubation mixtures are stopped with acetonitrile (final concentration about 30% v/v), and the protein is removed by centrifugation at about 15 000×g. The samples stopped in this way are either analyzed directly or stored at −20° C. until analyzed.
The analysis takes place by high performance liquid chromatography with mass spectrometry detection (LC-MS). The formation of 6β-hydroxytestosterone as measure of CYP3A4 activity, and the test substance still remaining is quantified. The parameters kinact, Ki and the partition ratio r are determined therefrom so as to assess the novel active ingredients in relation to MBI.

T1 sequence (P08684 whole entry): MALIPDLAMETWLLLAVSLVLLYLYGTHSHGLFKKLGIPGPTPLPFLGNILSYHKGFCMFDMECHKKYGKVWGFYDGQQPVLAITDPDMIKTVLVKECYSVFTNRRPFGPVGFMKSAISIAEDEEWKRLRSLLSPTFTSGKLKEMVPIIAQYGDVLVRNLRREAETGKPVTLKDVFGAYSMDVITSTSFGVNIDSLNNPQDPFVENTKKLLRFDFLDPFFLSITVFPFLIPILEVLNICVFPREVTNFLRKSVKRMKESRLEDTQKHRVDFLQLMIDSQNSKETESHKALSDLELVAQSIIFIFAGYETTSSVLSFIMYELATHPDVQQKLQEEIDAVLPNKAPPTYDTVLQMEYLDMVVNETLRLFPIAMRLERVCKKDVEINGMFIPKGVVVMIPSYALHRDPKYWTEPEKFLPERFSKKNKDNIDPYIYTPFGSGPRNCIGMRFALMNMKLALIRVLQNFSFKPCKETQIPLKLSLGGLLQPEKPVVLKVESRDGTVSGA

Consider `CCC(CCC#N)(c1ccc(Cl)cc1)c1c[nH]c2c(CS(C)(=O)=O)cccc12` (centres unmarked) [Example 172, 4-(4-Chlorophenyl)-4-{7-[(methylsulfonyl)methyl]-1H-indol-3-yl}hexanonitrile], for which the Partition ratio r is given as 120. The same measure for `CS(=O)(=O)Cc1cccc2c(C3(C4CC4)CCc4cc(F)ccc43)c[nH]c12` (centres unmarked) [Example 107, 3-(1-Cyclopropyl-5-fluoro-2,3-dihydro-1H-inden-1-yl)-7-[(methylsulfonyl)methyl]-1H-indole]: over 400; for `CS(=O)(=O)Cc1cccc2c(C(c3ccc(Cl)cc3)C3CC3(F)F)c[nH]c12` (single isomer, unassigned) [Example 261-1, 3-[(4-Chlorophenyl)(2,2-difluorocyclopropyl)methyl]-7-[(methylsulfonyl)methyl]-1H-indole]: over 200. `CS(=O)(=O)Cc1cc(F)cc2c(C(c3ccc(F)cc3Cl)C3CC3C#N)c[nH]c12` (single isomer, unassigned) [Example 266-1, 2-[(2-Chloro-4-fluorophenyl){5-fluoro-7-[(methylsulfonyl)methyl]-1H-indol-3-yl}methyl]cyclopropanecarbonitrile]: the Partition ratio r is listed as over 200. As to `CS(=O)(=O)Cc1cccc2c(C(CCC#N)c3ccc(C(F)(F)F)cc3)c[nH]c12` (single isomer, unassigned) [Example 56-1, 4-{7-[(Methylsulfonyl)methyl]-1H-indol-3-yl}-4-[4-(trifluoromethyl)phenyl]butanonitrile], the Partition ratio r is reported as 100. Take `CS(=O)(=O)Cc1cccc2c(C(CCC#N)c3ccc4sccc4c3)c[nH]c12` (centres unmarked) [Example 73, 4-(1-Benzothiophen-5-yl)-4-{7-[(methylsulfonyl)methyl]-1H-indol-3-yl}butanonitrile]: the Partition ratio r is over 500.

Turning to `CS(=O)(=O)Cc1cc(F)cc2c(C(c3ccc(C(F)(F)F)cc3F)C3CC3C#N)c[nH]c12` (single isomer, unassigned) [Example 271-1-1, 2-({5-Fluoro-7-[(methylsulfonyl)methyl]-1H-indol-3-yl}[2-fluoro-4-(trifluoro-methyl)phenyl]methyl)cyclopropanecarbonitrile], the Partition ratio r was over 200.

Consider `CS(=O)(=O)Cc1cc(F)cc2c(C(c3ccc(Cl)cc3F)C3CC3C#N)c[nH]c12` (single isomer, unassigned) [Example 273-1-2, 2-[(4-Chloro-2-fluorophenyl){5-fluoro-7-[(methylsulfonyl)methyl]-1H-indol-3-yl}methyl]cyclopropanecarbonitrile], for which the Partition ratio r is given as over 200. Take `CCC(CCO)(c1ccc(Cl)cc1)c1c[nH]c2c(CS(C)(=O)=O)cccc12` (centres unmarked) [Example 147, 3-(4-Chlorophenyl)-3-{7-[(methylsulfonyl)methyl]-1H-indol-3-yl}pentan-1-ol]: the Partition ratio r is on record as 90. For the molecule `CS(=O)(=O)Cc1cc(F)cc2c(C(c3ccc(Cl)cc3)C3CC3C#N)c[nH]c12` (single isomer, unassigned) [Example 277-1-1, 2-[(4-Chlorophenyl){5-fluoro-7-[(methylsulfonyl)methyl]-1H-indol-3-yl}methyl]cyclopropane-carbonitrile], the Partition ratio r is recorded as over 200. Then `CS(=O)(=O)Cc1cccc2c(C(CCC#N)c3ccc4c(c3)OC(F)(F)O4)c[nH]c12` (centres unmarked) [Example 169, 4-(2,2-Difluoro-1,3-benzodioxol-5-yl)-4-{7-[(methylsulfonyl)methyl]-1H-indol-3-yl}butanonitrile], with over 500; and `CS(=O)(=O)Cc1cccc2c(C(c3ccc(F)cc3)c3ccc(Cl)cc3F)c[nH]c12` (single isomer, unassigned) [Example 118-1, 3-[(4-Chloro-2-fluorophenyl)(4-fluorophenyl)methyl]-7-[(methylsulfonyl)methyl]-1H-indole], with 250; and `CS(=O)(=O)Cc1cccc2c(C(CCC#N)c3ccc(Cl)cc3F)c[nH]c12` (single isomer, unassigned) [Example 59-1, 4-(4-Chloro-2-fluorophenyl)-4-{7-[(methylsulfonyl)methyl]-1H-indol-3-yl}butanonitrile], with 220. As to `CS(=O)(=O)Cc1cccc2c(C(c3ccc(F)cc3)c3ccc(C(F)(F)F)cc3)c[nH]c12` (centres unmarked) [Example 113, 3-{(4-Fluorophenyl) [4-(trifluoromethyl)phenyl]methyl}-7-[(methylsulfonyl)methyl]-1H-indole], the Partition ratio r was over 500.
